In patent US20030049814A1, “Herbicide resistant plants” (priority 1999, published 2003):
Counter-ions that a name gives are not always drawn.

Experiments:
resistant form of EPSPS = test: EPSPS assay of plant extracts with or without glyphosate, resistant enzyme; format: biochemical, rice; settings: 0.1 mM glyphosate, 0.1 mM 14C-PEP, 0.75 mM shikimate-3-Pi
Description: (§1) Assays are carried out generally according to the radiochemical method of Padgette et al 1987 (Archives of Biochemistry and Biophysics, 258(2) 564-573) with K+ions as the major species of cationic counterion. Assays in a total volume of 50 μl, in 50 mM Hepes(KOH) pH 7.0 at 25° C., contain purified enzyme or plant extract (see below) diluted appropriately in Hepes pH 7.0 containing 10% glycerol, and 5 mM DTT, ^14C PEP either as variable substrate(for kinetic determinations) or fixed at 100 or 250 μM and shikimate 3 Phosphate (K+salt) at 2 or 0.75 mM as indicated. Optionally, for assays of crude plant extracts, assays also contain 5 mM KF and/or 0.1 mM ammonium molybdate. Assays are started with the addition of ^14C phosphoenolpyruvate (cyclohexylammonium+salt) and stopped after 2-10 minutes (2 minutes is preferable) with the addition of 50μl of a solution of 1 part 1M acetic acid and 9 parts ethanol. […] Apparent Km and Vmax values are determined by least squares fit to a hyperbola with simple weighting using the Grafit 3.09b from Erithacus Software Ltd. Km values are generally ascertained using 8-9 concentrations of variable substrate ranging from Km/2-10 Km and triplicate points. […]

[1] = system: sensitive w/t form of EPSPS (endogenous); test: EPSPS assay of plant extracts with or without glyphosate, sensitive enzyme; format: biochemical, corn; settings: 0.1 mM glyphosate, 0.1 mM 14C-PEP, 0.75 mM shikimate-3-Pi
Description: as §1

[2] = molecular target: T1, mutant form of rice EPSPS (Oryza sativa, UniProt A0A0N9WU17, P177S/T173I); test: EPSPS enzyme assay (radiochemical) of purified mutant rice EPSPS; format: biochemical
T1 sequence (A0A0N9WU17 72-515 T173I/P177S): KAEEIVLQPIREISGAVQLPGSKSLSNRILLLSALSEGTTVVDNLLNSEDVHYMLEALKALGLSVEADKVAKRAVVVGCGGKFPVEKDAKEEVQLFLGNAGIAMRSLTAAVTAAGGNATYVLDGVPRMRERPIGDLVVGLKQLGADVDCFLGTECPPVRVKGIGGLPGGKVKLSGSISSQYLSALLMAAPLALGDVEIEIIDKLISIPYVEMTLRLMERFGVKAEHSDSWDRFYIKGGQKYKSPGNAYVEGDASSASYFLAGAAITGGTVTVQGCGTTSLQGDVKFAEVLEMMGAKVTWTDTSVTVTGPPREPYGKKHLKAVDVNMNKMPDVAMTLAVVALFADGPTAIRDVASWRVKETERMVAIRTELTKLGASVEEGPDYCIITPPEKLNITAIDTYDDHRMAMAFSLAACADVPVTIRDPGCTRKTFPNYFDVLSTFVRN
Description: The resultant products are gel purified and placed into a tube in eqi-molar concentrations to serve as a template for another round of PCRs with the rice 5′ and 3′ oligos. The resultant products are cloned into pCRBlunt II using Invitrogens Zero Blunt TOPO kit. It is confirmed that the DNA sequence of the insert and its predicted open reading frame correspond to that of the predicted mature chloroplastic rice EPSPS protein (with the exception of the presence of an initiating Met) and also that the desired changes (the specific mutation of T to I and P to S at specific positions in the EPSPS sequence) are encoded . The thus cloned and verified rice epsps sequence is excised using Nde 1 and Xho 1 and the purified fragment cloned into pET24a (Novagen) digested similarly. The recombinant clones are introduced into BL21 (DE3), a codon optimised RP strain of E. coli supplied by Strategene. The EPSPS protein is expressed in this strain following addition of 1 mM IPTG to the fermenter medium (LB supplemented with 100 ug/ml Kanamycin). […]

SMILES | inhibition of resistant (tolerant) EPSPS (resistant form of EPSPS) [%] | inhibition of resistant (tolerant) EPSPS (resistant form of EPSPS; listed as glyphosate) [%] | inhibition of sensitive w/t (endogenous) EPSPS [1] [%] | IC50 [2] [µM] | Ki [2] [µM]
O=C(O)CNCP(=O)(O)O [N-(phosphonomethyl)glycine, N-phosphonomethylglycine] | < 8.5 | ~8 | > 98 |  | 
O=C(O)CNCP(=O)(O)O [potassium salt of glyphosate] |  |  |  | ~600 | ~200
